Experimental data published in patent publication US8633250B2, “Cell repair and regeneration by suramin and related polysulfonated napthylureas” (MUSC Foundation for Research Development, priority 2006, dated 2014).

Columns and labels:
[1] = test system: renal proximal tubule cells (RPTC); assay: Cell cycle analysis by flow cytometry: number of RPTC in S-phase; type: cell-based, rabbit; conditions: for effect of inhibitor on suramin-induced RPTC proliferation (number of RPTC in S-phase): 50 μM suramin 24 hr, 20 μM LY294002, 10 μM U0126 or 10 μM PP1
Procedure: (§1) Isolation and culture of renal proximal tubules: Isolation and culture of renal proximal tubules were performed as described previously (Rodeheaver et al., 1990; Nowak and Schnellmann, 1995; Nowak and Schnellmann, 1996). Female New Zealand White rabbits (1.5-2.5 kg) were purchased from Myrtle's Rabbitry (Thompson Station, Tenn.). RPTC were isolated using the iron oxide perfusion method and grown in 6-well tissue culture dishes under improved conditions. The culture medium was an 1:1 mixture of DMEM/Ham's F-12 (without glucose, phenol red, or sodium pyruvate) supplemented with 15 mM HEPES buffer, 2.5 mM L-glutamine, 1 μM pyridoxine HCl, 15 mM sodium bicarbonate, and 6 mM lactate. Hydrocortisone (50 μM), selenium (5 ng/ml), human transferrin (5 μg/ml) bovine insulin (10 nM) and L-ascorbic acid-2-phosphate (50 μM) were added daily to fresh culture medium.
(§2) Isolated tubules were plated at 1 mg protein/well in a 6-well plate. On day 2, RPTC were incubated in the presence and absence of various pharmacological inhibitors for different time periods as indicated in the figure legends. For some experiments, suramin was added to RPTC on day 3 and then incubated for 24 hr in the presence or absence of various inhibitors before samples were taken.
Cell cycle analysis: Cell cycle phase was determined using flow cytometry as previously described (Zhuang et al., 2004). Cells were harvested, stained with propidium iodide and the number of cells in S-phase of cell cycle determined.

[2] = test system: renal proximal tubule cells (RPTC); assay: MTT assay of RPTC proliferation; type: cell-based, rabbit; conditions: for effect of inhibitor on suramin-induced RPTC proliferation (MTT assay): 50 μM suramin 48 hr, 10 μM AG1478, 20 μM LY294002, 10 μM U0126 or 10 μM PP1
Procedure: as §1, with “[…],” for “Schnellmann,”, “medium. Isolated tubules were plated at 1 mg protein/well in a 6-well plate. On day 2, RPTC were incubated in the presence and absence of various pharmacological inhibitors for different time periods as indicated in the figure legends. […] MTT assay: The 3-(4,5-dimethylthiazol-2-yl)-2,5-diphenyl-tetrazolium bromide (MTT) assay was used to assess cell proliferation (Kooistra et al., 1997; […] et al., 2002). Following a 48 hr exposure to various inhibitors or diluents, MTT was added (final concentration of 0.5 mg/ml) to individual cultures for an additional 30 min. Tetrazolium was released by dimethyl sulfoxide and optical density was determined with a spectrophotometer (570 nm). Data were normalized to diluent-treated cultures.” for “medium.”

[3] = test system: renal proximal tubule cells (RPTC); assay: RPTC scattering, fibroblast-like morphology and lamellipodia (bright field, phalloidin staining); type: cell-based, rabbit; conditions: for effect of inhibitor on suramin-induced fibroblast-like phenotype and RPTC scattering: 50 μM suramin 24 hr, 10 μM AG1478, 20 μM LY294002, 10 μM U0126 or 10 μM PP1
Procedure: as §1, §2
Immunocytochemistry: After various treatments, RPTC were fixed with 10% buffered formalin, washed, permeabilized, and blocked with BSA. Fluorescein conjugated phalloidin was added and RPTC visualized by fluorescent microscopy.

Akt = assay: Immunoblot of Akt phosphorylation in RPTC; type: cell-based, rabbit; conditions: for effect of inhibitor on Akt phosphorylation: pretreated 1 hr with 20 μM LY294002, or 10 μM PP1, or AG1478, 50 μM suramin 30 min
Procedure: (§3) Preparation of cell lysates and immunoblot analysis: After different treatments, RPTC were washed twice with PBS and harvested in lysis buffer (0.25 M Tris-HCl, pH 6.8, 4% SDS, 10% glycerol, 1 mg/ml bromophenol blue, and 0.5% 2-mercaptoethanol). Cells were disrupted by sonication for 15 seconds and lysates stored at −20 °C. Equal amounts of cellular protein lysate were separated on 10% polyacrylamide gels and transferred to nitrocellulose membranes. After treatment with 5% skim milk at 4 °C overnight, membranes were incubated with various antibodies for 1 hr, and then incubated with an appropriate horseradish-peroxidase conjugated secondary antibody (Amersham, Piscataway, N.J.). Bound antibodies were visualized following chemiluminescence detection on autoradiographic film.
We evaluated whether the PI3K/Akt and/or ERK1/2 pathways are activated in RPTC in response to suramin. The activation of the PI3K and ERK1/2 pathways was measured using immunoblot analysis and antibodies that recognize phosphorylated Akt at serine 473 (a target of PI3K) and ERK1/2, respectively. Total Akt and ERK1/2 content was measured using immunoblot analysis and antibodies that recognize the Akt and ERK1/2 independent of their phosphorylation state to control for gel loading. Suramin-induced Akt phosphorylation within 10 min, reached a maximum at 30 min and was sustained through 120 min of treatment (FIG. 6A). ERK1/2 phosphorylation also was induced within 10 min and maximal at 30 min, but decreased to the control levels at 120 min.

Src = assay: Immunoblot of Src phosphorylation (Tyr416, Tyr527) in RPTC; type: cell-based, rabbit
Procedure: as §3
To determine whether suramin activates Src and whether Src mediates Akt activation, we examined the effect of suramin on Src phosphorylation and the effect of PP1 on suramin-induced Akt phosphorylation. Src activation requires dephosphorylation of tyrosine 527 (Zheng et al., 2000) and phosphorylation of tyrosine 416 in the catalytic domain (Leu and Maa, 2003). Src phosphorylation at tyrosine 416 was detected in control samples. Following suramin-treatment, Src phosphorylation increased within 10 min and returned to the basal level at 60 min (FIG. 8A). […] Thus, suramin-induced RPTC proliferation and scattering is dependent on Src activity and Src is required for activation of the PI3K/Akt signaling pathway.

[4] = test system: renal proximal tubule cells (RPTC); assay: RPTC outgrowth from plated renal proximal tubules (photographs); type: cell-based, rabbit; conditions: after 24 hr exposed for 24 hr, 50 μM suramin, 10 ng/ml EGF or suramin+EGF
Procedure: as §1, §2

EGF receptor = assay: Immunoblot of EGF receptor phosphorylation (Tyr1068) in RPTC; type: cell-based, rabbit
Procedure: as §3
To determine whether suramin caused EGF receptor activation, we performed immunoblot analysis using an antibody against phosphorylated tyrosine 1068 of the EGF receptor. Total EGF receptor content was measured using immunoblot analysis and an antibody that recognizes the EGF receptor independent of its phosphorylation state to control for gel loading. […] Thus, suramin induced RPTC proliferation and scattering is not through the EGF receptor.

ERK1/2 = assay: Immunoblot of ERK1/2 phosphorylation in RPTC; type: cell-based, rabbit
Procedure: as §3
We evaluated whether the PI3K/Akt and/or ERK1/2 pathways are activated in RPTC in response to suramin. The activation of the PI3K and ERK1/2 pathways was measured using immunoblot analysis and antibodies that recognize phosphorylated Akt at serine 473 (a target of PI3K) and ERK1/2, respectively. Total Akt and ERK1/2 content was measured using immunoblot analysis and antibodies that recognize the Akt and ERK1/2 independent of their phosphorylation state to control for gel loading.

[5] = test system: mouse renal ischemic/reperfusion (I/R) acute renal failure model; assay: Mouse renal ischemic/reperfusion (I/R) acute renal failure model, serum creatinine; type: in vivo
Procedure: Experiments were designed to investigate whether suramin stimulated recovery of renal function in a mouse renal ischemic/reperfusion (I/R) acute renal failure model. Male C57BL/6 mice weighing 25-30 g were subjected to I/R injury using bilateral renal artery clamping for 26 min and then allowed to recover over time. The renal pedicles were isolated, but no clamps were applied in the sham group. Some mice subjected to I/R were treated with a single intravenous dose of suramin (0.001-10 mg/kg) or diluent 24 hr after reperfusion. Blood was collected at 24 and 48 hr after injury and serum creatinine levels measured as a marker of acute renal failure.

Compound: Cc1ccc(-c2nn(C(C)(C)C)c3ncnc(N)c23)cc1 [PP1]
- effect of inhibitor on suramin-induced RPTC proliferation (number of RPTC in S-phase) [1]: inhibited RPTC proliferation in control and suramin-treated cells
- effect of inhibitor on suramin-induced RPTC proliferation (MTT assay) [2]: inhibited RPTC proliferation in control and suramin-treated cells
- effect of inhibitor on suramin-induced fibroblast-like phenotype and RPTC scattering [3]: blocked
- effect of inhibitor on Akt phosphorylation (Akt): blocked suramin-induced phosphorylation of Akt
- effect of inhibitor on suramin-induced Src phosphorylation (Src; PP1, suramin-treated RPTC): inhibition of suramin-induced Src and Akt phosphorylation

Compound: Cc1ccc(C(=O)Nc2ccc(S(=O)(=O)O)c3cc(S(=O)(=O)O)cc(S(=O)(=O)O)c23)cc1NC(=O)c1cccc(NC(=O)Nc2cccc(C(=O)Nc3cc(C(=O)Nc4ccc(S(=O)(=O)O)c5cc(S(=O)(=O)O)cc(S(=O)(=O)O)c45)ccc3C)c2)c1 [suramin]
- RPTC outgrowth [4]: stimulated RPTC outgrowth
- RPTC proliferation (S-phase) ([1]; 100 μM suramin, 24 hr, compared with 50 μM): did not further increase RPTC proliferation
- RPTC in S-phase ([1]; 24 hr treatment, four days following plating, suramin 50 μM, EGF 10 ng/ml, untreated approximately 20%): 29%
- number of RPTC in S-phase ([1]; suramin concentrations lower than 50 μM, 24 hr): did not statistically increase the number of RPTC in S-phase
- increase in the number of RPTC (MTT assay) ([2]; 48 hr exposure, 50 μM suramin, versus diluent controls): approximately 40%
- formation of lamellipodia and intercellular contacts ([3]; 50 μM suramin or 10 ng/ml EGF, 24 hr, phalloidin staining): increased the formation of lamellipodia and decreased intercellular contacts
- RPTC morphology at the edge of the cell island (scattering) ([3]; 50 μM suramin, 24 hr, RPTC cultured 3 days): lost contact with their neighbors and became elongated, fibroblast-like cells
- EGF receptor phosphorylation (tyrosine 1068) (EGF receptor; 50 μM suramin, 10 ng/ml EGF or both for 10 min): did not detect phosphorylated EGF receptor
- Akt phosphorylation sustained through (Akt; 50 μM suramin, 0-120 min): ≥ 120 min
- time of maximum Akt phosphorylation (Akt; 50 μM suramin, 0-120 min): 30 min
- time to induction of Akt phosphorylation (Akt; 50 μM suramin, 0-120 min): ≤ 10 min
- time at which ERK1/2 phosphorylation decreased to the control levels (ERK1/2; 50 μM suramin, 0-120 min): 120 min
- time of maximal ERK1/2 phosphorylation (ERK1/2; 50 μM suramin, 0-120 min): 30 min
- time to induction of ERK1/2 phosphorylation (ERK1/2; 50 μM suramin, 0-120 min): ≤ 10 min
- reduced phosphorylation of Src at tyrosine 527 sustained through (Src; 50 μM suramin): ≥ 120 min
- time at which Src phosphorylation (tyrosine 416) returned to the basal level (Src; 50 μM suramin): 60 min
- time to increase of Src phosphorylation at tyrosine 416 (Src; 50 μM suramin): ≤ 10 min
- time to reduced phosphorylation of Src at tyrosine 527 (Src; 50 μM suramin): ≤ 5 min
- renal function ([5]; doses of suramin greater than or equal to 0.1 mg/kg, single intravenous dose 24 hr after reperfusion): completely restored renal function
- recovery of renal function ([5]; low doses (0.1 mg/kg), given after acute renal failure is fully established): complete recovery of renal function
- serum creatinine levels ([5]; single intravenous suramin dose between 0.003 and 0.03 mg/kg 24 hr after reperfusion, I/R plus diluent approximately 2 mg/dl): approximately 1 mg/dl

Compound: N#CC(=C(N)Sc1ccccc1N)C(C#N)=C(N)Sc1ccccc1N [U0126, 1,4-Diamino-2,3-dicyano-1,4-bis(2-aminophenylthio)butadiene]
- effect of inhibitor on suramin-induced RPTC proliferation (number of RPTC in S-phase) [1]: had no effect on proliferation
- effect of inhibitor on suramin-induced RPTC proliferation (MTT assay) [2]: had no effect on proliferation
- effect of inhibitor on suramin-induced fibroblast-like phenotype and RPTC scattering [3]: had no effect
- effect of inhibitor on ERK1/2 phosphorylation (ERK1/2; pretreated with 10 μM U0126 for 1 hr, presence and absence of 50 μM suramin (30 min)): blocked ERK1/2 phosphorylation

Compound: O=c1cc(N2CCOCC2)oc2c(-c3ccccc3)cccc12 [LY294002, 2-(4-Morpholinyl)-8-phenyl-4H-1-benzopyran-4-one]
- effect of inhibitor on suramin-induced RPTC proliferation (number of RPTC in S-phase) [1]: decreased suramin-induced proliferation
- effect of inhibitor on suramin-induced RPTC proliferation (MTT assay) [2]: decreased suramin-induced proliferation
- effect of inhibitor on suramin-induced fibroblast-like phenotype and RPTC scattering [3]: partially inhibited
- effect of inhibitor on Akt phosphorylation (Akt): blocked Akt phosphorylation

Compound: COc1cc2ncnc(Nc3cccc(Cl)c3)c2cc1OC [AG1478, 4-(3-chloroanilino)-6,7-dimethoxyquinazoline]
- effect of inhibitor on suramin-induced RPTC proliferation (MTT assay) [2]: did not affect suramin-induced RPTC proliferation
- effect of inhibitor on EGF-induced fibroblast-like phenotype and scattering ([3]; 10 ng/ml EGF 24 hr, 10 μM AG1478): blocked EGF-induced formation of the fibroblast-like phenotype and scattering
- effect of inhibitor on suramin-induced fibroblast-like phenotype and RPTC scattering [3]: did not affect suramin-induced formation of the fibroblast-like phenotype and scattering
- effect of inhibitor on EGF-induced EGF receptor phosphorylation (EGF receptor; pretreated with 10 μM AG1478 for 1 hr, then EGF 10 min): inhibited EGF-induced EGF receptor phosphorylation
- effect of inhibitor on Akt phosphorylation (Akt): did not affect suramin-induced phosphorylation of Akt
